Consider 1 molecule from patent EP0718294A1, “2-Amino-1,3-thiazepines and their use as inhibitors of the nitrogene oxide synthase” (HOECHST AKTIENGESELLSCHAFT, priority 1994, dated 1996).

For this assay, the target named is T1, NO-Synthase (iNOS) (Mus musculus, UniProt P29477).
T1 construct: Während der Stimulation über 4 Stunden wird die Neusynthese des NO-produzierenden Enzyms NO-Synthase (iNOS) induziert; endogenous in cells; host or cells: RAW 264.7 mouse macrophages stimulated with LPS and γ-interferon
Put plainly: NO measurement by oxyhaemoglobin on LPS/γ-interferon-stimulated macrophages (inhibition of NO release). It counts as cell-based, Maus. The settings on record: Mäusemakrophagen RAW 264.7, stimulated 4 h with 140 ng LPS/ml + 5 U γIFN/ml; 120 min incubation with test substance; Extinktionsdifferenz 576-592 nm vs. stimulation control. As for the experimental part: Die Hemmung der NO-Freisetzung durch die Verbindungen der allgemeinen Formel I kann auch durch NO-Messung mittels Oxyhämoglobin auf Makrophagen wie folgt bestimmt werden: Mäusemakrophagen (MM) des Stammes RAW 264.7 werden in Petrischalen (10 cm Durchmesser) angezüchtet. Als Nährmedium wird DMEM (Fa. Sigma Nr. D 5405), konditioniert mit 4 mM l-Glutamin, 3,5 g D-Glukose/l, 50 U/50 µg/ml Pen/Strep und 10 % FKS, eingesetzt unter 5 % CO2, 95 % Luftfeuchtigkeit, 37°C. Die subkonfluenten Zellen werden mit dem Zellschaber abgekratzt, in Medium aufgenommen, die Zellzahl bestimmt (Zählung in Trypanblaulösung 0,2 %) und in 24-Napfplatten (1 x 10^6 Zellen/ml, 1 ml/Napf) ausgesät.
Ca. 18 Stunden nach Aussaat werden die gut adherierten Mausmakrophagen mit LPS (Lipopolysaccharid von E. coli Serotyp 0111:B4, Fa. Sigma Nr. L 2630) und γ-Interferon (γIFN, Maus rekombinant, Firma Boehringer Mannheim Nr. 1276905) stimuliert. Dazu wird das Kulturmedium von den Zellen abgesaugt und 1 ml/Napf (24-Napfplatte) Inkubationsmedium (MEM ohne Phenolrot (Biochrom F0385)), konditioniert mit 4mM Glutamin, 3,5 g Glukose/l, 3,7 g NaHCO3/l, 110 mg Natriumpyruvat/l, 50 U/50 µg/ml Pen/Strep und 5 % FKS, aufgegeben. Pro ml Inkubationsmedium werden 1 µl LPS und 1 µl γIFN pipettiert.
Daraus ergeben sich folgende Konzentrationen der Stimulatoren: 140 ng LPS/ml + 5 U γIFN/ml [formula] […]

Molecules are shown by their SMILES. Where a name gives a salt, the structure may show the parent alone.

On to `NC1=NCCCCS1` [Beispiel 1, 2-Amino-4,5,6,7-tetrahydro-1,3-thiazepin-Hydrochlorid], for which the IC50 stood at 1.3 µM.
